In patent publication US8436011B2, “Pyridinopyridinone derivatives, preparation thereof and therapeutic use thereof” (Sanofi, priority 2008, dated 2013):
pIC50: −log10 of the molar value. Like-named read-outs stand apart in the source and are kept apart here.

Tests used:
[1] = target: fusion protein FIP1L1-PDGF-Rα (EOL-1 cell line) (Homo sapiens, UniProt P16234); test: Inhibition of PDGF alpha receptor tyrosine kinase activity: proliferation of EOL-1 cells (CellTiter-Glo, 72 h); assay type: cell-based
Sequence of fusion protein FIP1L1-PDGF-Rα (EOL-1 cell line) (P16234 579-1089, change not shown): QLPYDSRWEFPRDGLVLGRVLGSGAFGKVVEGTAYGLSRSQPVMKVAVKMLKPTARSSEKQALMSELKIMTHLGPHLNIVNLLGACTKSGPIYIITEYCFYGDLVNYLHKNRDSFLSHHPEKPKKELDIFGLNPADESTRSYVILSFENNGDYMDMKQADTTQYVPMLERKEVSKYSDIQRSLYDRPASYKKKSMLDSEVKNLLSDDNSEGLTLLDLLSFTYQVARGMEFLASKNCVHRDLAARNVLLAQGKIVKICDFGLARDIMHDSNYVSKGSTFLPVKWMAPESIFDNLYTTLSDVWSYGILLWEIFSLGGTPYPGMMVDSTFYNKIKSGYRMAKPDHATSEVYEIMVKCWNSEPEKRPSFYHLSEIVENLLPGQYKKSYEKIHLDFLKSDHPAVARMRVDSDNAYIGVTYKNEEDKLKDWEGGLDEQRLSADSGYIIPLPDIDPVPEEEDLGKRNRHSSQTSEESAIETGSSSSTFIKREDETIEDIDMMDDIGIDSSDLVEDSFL
Sequence of fusion protein FIP1L1-PDGF-Rα (EOL-1 cell line) (Q6UN15 1-339 partner): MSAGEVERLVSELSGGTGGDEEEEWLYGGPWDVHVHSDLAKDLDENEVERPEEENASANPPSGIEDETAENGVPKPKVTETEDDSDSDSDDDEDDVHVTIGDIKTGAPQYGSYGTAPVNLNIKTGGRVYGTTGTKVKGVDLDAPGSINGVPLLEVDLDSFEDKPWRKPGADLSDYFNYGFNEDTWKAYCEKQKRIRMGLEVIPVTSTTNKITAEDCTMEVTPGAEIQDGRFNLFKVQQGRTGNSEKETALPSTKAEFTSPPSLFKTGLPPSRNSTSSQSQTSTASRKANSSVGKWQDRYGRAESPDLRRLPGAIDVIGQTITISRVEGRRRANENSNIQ
Description: Measurement of Inhibition of the Tyrosine Kinase Activity of the PDGF Alpha Receptor: The inhibitory effect of the compounds according to the invention towards the tyrosine kinase activity of the PDGF alpha receptor was evaluated on the EOL-1 cell line, which line is established from a leukaemia of constitutively active chronic eosinophilic leukaemia (CEL) type. The EOL-1 line has been described as expressing the fusion protein FIP1L1-PDGF-Rα and is sensitive to kinase inhibitors in proliferation tests (Cools J. et al., Blood 2004, 103, […]). The inhibitory activity is correlated to the inhibition of cell growth. […] After incubation for 72 hours, the viable cells are quantified by measuring the cellular ATP by means of the CellTiter-Glo® kit (Promega, Cat G7571). The cells are treated according to the instructions given by the kit manufacturer, and the luminescence is measured using a Luminoskan (Ascent, Labsystem) with the following parameters: measurement: single; integration time: 1000 ms, lag time: 5 s. It is thus seen that the compounds according to the invention have inhibitory activity on the tyrosine kinase activity of PDGF-Rα. This activity is given by the concentration that inhibits 50% of the proliferation of the EOL-1 cells.

[2] = target: T1, FLT3 receptor (MV4-11 cell line bearing an FLT3ITD mutant) (Homo sapiens, UniProt P36888, INS600HVDFREYEYD); test: Inhibition of FLT3 receptor tyrosine kinase activity: proliferation of MV4-11 cells (CellTiter-Glo, 72 h); assay type: cell-based; conditions: 72 hours incubation, read-out: IC50 (concentration that inhibits 50% of the proliferation of the MV4-11 cells)
T1 construct: MV4-11 cell line, which line is established from a leukaemia of constitutively active AML type bearing an FLT3ITD mutant; endogenous in cells; host or cells: MV4-11
T1 sequence (P36888 with tags, fused parts or gaps INS600HVDFREYEYD): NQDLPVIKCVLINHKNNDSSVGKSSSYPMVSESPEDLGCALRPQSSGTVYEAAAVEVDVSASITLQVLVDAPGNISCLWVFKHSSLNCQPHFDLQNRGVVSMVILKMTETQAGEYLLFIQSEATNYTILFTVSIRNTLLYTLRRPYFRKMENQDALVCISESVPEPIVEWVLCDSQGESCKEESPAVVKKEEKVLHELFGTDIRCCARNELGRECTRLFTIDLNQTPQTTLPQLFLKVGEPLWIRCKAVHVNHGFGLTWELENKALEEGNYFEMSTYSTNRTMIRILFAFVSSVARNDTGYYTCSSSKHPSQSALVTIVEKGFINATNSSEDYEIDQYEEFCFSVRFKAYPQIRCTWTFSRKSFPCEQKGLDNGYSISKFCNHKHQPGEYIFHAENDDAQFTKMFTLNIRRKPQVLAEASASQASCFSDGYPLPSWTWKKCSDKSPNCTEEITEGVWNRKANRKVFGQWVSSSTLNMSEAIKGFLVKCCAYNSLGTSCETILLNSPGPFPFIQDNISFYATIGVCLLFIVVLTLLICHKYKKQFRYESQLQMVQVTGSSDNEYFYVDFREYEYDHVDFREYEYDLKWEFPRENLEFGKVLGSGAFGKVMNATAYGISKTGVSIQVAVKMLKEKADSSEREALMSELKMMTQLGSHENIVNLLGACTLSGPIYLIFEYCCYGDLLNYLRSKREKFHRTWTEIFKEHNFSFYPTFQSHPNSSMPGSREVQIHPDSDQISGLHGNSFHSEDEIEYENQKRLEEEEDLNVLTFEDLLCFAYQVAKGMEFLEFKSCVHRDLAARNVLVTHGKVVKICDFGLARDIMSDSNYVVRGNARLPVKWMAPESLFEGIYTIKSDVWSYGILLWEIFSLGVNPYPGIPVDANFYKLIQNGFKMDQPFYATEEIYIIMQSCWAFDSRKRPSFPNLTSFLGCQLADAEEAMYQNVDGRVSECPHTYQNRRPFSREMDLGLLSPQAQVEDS
Description: Measurement of Inhibition of the Tyrosine Kinase Activity of the FLT3 Receptor
The inhibitory effect of the compounds according to the invention towards the tyrosine kinase activity of the FLT3 receptor was evaluated on an MV4-11 cell line, which line is established from a leukaemia of constitutively active AML type bearing an FLT3ITD mutant. The inhibitory activity is correlated to the inhibition of cell growth, according to the protocols described by Spiekermann, K. et al., Blood, 2003, 101, (4) 1494-1504 and O'Farrell, A.-M. et al., Blood, 2003, 101, (9) 3597-3605.
(§1) MV4-11 cells are washed with PBS buffer and inoculated in 96-well plates, at a density of 1×10^5 cells/ml (100 μL per well), in RPMI 1640 containing 10% FCS, in the presence or absence of the test compounds. After incubation for 72 hours, the viable cells are quantified by measuring the cellular ATP by means of the CellTiter-Glo® kit (Promega, Cat G7571). The cells are treated according to the instructions given by the kit manufacturer, and the luminescence is measured using a Luminoskan (Ascent, Labsystem) with the following parameters: measurement: single; integration time: 1000 ms, lag time: 5 s.
The inhibitory activity with respect to the FLT3 receptor is given by the concentration that inhibits 50% of the proliferation of the MV4-11 cells.

[3] = target: T2, fusion protein Tel/PDGF-Rβ (BaF3 Tel/PDGF cells) (Homo sapiens, UniProt P09619); test: Inhibition of PDGF-Rβ tyrosine kinase activity: proliferation of BaF3 Tel/PDGF cells (CellTiter-Glo, 72 h); assay type: cell-based, murine; conditions: 72 hours incubation, read-out: IC50 (concentration that inhibits 50% of the proliferation of the BaF3 Tel/PDGF cells)
T2 construct: the transmembrane and intracellular part of the PDGF-Rβ receptor; N-terminal part of the Tel transcription factor (ETV6); expressed in transfected cells; host or cells: murine haematopoietic cell line BaF/3; the other entry of the earlier key: ETV6 (P41212, Transcription factor ETV6)
T2 sequence (P09619 with tags, fused parts or gaps): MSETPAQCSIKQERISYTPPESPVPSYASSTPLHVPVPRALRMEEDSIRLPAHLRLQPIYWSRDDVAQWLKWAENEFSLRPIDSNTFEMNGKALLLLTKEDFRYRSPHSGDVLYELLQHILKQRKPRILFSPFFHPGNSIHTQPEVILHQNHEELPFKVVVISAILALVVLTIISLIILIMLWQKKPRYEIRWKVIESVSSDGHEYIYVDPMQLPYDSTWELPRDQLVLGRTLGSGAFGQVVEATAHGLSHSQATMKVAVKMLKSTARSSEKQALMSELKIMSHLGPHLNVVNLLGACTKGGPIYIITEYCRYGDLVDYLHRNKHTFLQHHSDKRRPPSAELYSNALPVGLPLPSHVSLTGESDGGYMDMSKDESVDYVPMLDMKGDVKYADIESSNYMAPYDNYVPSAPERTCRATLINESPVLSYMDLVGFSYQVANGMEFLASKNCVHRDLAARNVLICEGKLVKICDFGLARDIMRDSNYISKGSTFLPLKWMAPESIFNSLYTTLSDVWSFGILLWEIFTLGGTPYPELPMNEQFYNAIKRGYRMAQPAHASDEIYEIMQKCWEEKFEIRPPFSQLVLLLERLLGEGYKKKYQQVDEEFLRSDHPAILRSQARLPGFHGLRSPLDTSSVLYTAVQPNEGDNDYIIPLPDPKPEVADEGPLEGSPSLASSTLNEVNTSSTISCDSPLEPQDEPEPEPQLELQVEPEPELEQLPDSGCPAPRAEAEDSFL
Description: Measurement of Inhibition of the Tyrosine Kinase Activity of the PDGF Beta (PDGF-Rβ) (Baf-3 tel/PDGFIRβ) Receptor:
This test consists in evaluating the effects of the compounds on the tyrosine kinase activity of the PDGF beta receptor.
The inhibitory effect of the compounds according to the invention towards the tyrosine kinase activity of the PDGF-R receptor was evaluated on the murine haematopoietic cell line BaF/3 transfected with a plasmid coding for the fusion protein Tel/PDGF-Rβ. This fusion protein is found in chronic myelomonocytic myeloid leukaemias (CMML). It comprises the N-terminal part of the Tel transcription factor and the transmembrane and intracellular part of the PDGF-Rβ receptor. This fusion protein is present in dimerized form (presence of an oligomerization domain in the N-terminal part of Tel) and, as a result, leads to constitutive activity of the kinase domain of PDGF-Rβ. This line BaF3 Tel/PDGF has been described in the literature several times and especially, in detailed manner, in the article by M. Carroll et al., PNAS, 1996, 93, 14845-14850.
as §1, with “The BaF3 Tel/PDGF” for “MV4-11”, “phosphate” for “PBS”, “5×10^4” for “1×10^5”, “[…]” for “μL”
It is thus seen that the compounds according to the invention have inhibitory activity on the tyrosine kinase activity of PDGF-Rβ. This activity is given by the concentration that inhibits 50% of the proliferation of the BaF3 Tel/PDGF cells (IC50).

[4] = read-out: IC50 (concentration that inhibits 50% of the proliferation of the EOL-1 cells), 72 hours incubation
[5] = 72 hours incubation, read-out: IC50 (concentration that inhibits 50% of the proliferation of the EOL-1 cells)

pIC50 [2]	melting point	pIC50 [3]	pIC50 [1, 5]	Structure (SMILES)	pIC50 [1, 4]
6.47	270 °C	7.96	–	CCN1CCC[C@@H]1CNC(=O)Cc1ccc(-c2ccc3c(=O)c(C(=O)NC)c(N)n(CC)c3n2)cc1 [compound 14, 2-amino-1-ethyl-7-{4-[2-({[(2R)-1-ethylpyrrolidin-2-yl]methyl}amino)-2-oxoethyl]phenyl}-N-methyl-4-oxo-1,4-dihydro-1,8-naphthyridine-3-carboxamide]	–
6.74	> 280 °C	–	–	CCn1c(N)c(C(=O)NC)c(=O)c2ccc(-c3ccc(CC(=O)Nc4ccncn4)cc3)nc21 [compound 16, 2-amino-1-ethyl-N-methyl-4-oxo-7-{4-[2-oxo-2-(pyrimidin-4-ylamino)-ethyl]phenyl}-1,4-dihydro-1,8-naphthyridine-3-carboxamide]	–
6.89	–	10.15	–	CCN1CCOCC1CNC(=O)Cc1ccc(-c2ccc3c(=O)c(C(=O)NC)c(N)n(CC)c3n2)cc1 (centres unmarked) [compound 22, 2-amino-1-ethyl-7-[4-(2-{[(4-ethylmorpholin-3-yl)methyl]amino}-2-oxoethyl)phenyl]-N-methyl-4-oxo-1,4-dihydro-1,8-naphthyridine-3-carboxamide]	–
7.08	303 °C	8.43	9.10	CCn1c(N)c(C(=O)NC)c(=O)c2ccc(-c3ccc(CC(=O)Nc4nccs4)cc3)nc21 [compound 35, 2-amino-1-ethyl-N-methyl-4-oxo-7-{4-[2-oxo-2-(1,3-thiazol-2-ylamino)-ethyl]phenyl}-1,4-dihydro-1,8-naphthyridine-3-carboxamide]	–
–	–	–	7.53	CCN1CCCC1CNC(=O)Cc1csc(-c2ccc3c(=O)c(C(=O)NC)c(N)n(CC)c3n2)n1 (centres unmarked) [compound 43, 2-amino-1-ethyl-7-[4-(2-{[(1-ethylpyrrolidin-2-yl)methyl]amino}-2-oxoethyl)-1,3-thiazol-2-yl]-N-methyl-4-oxo-1,4-dihydro-1,8-naphthyridine-3-carboxamide]	–
–	180 °C	–	7.03	CCN1CCCC1CNC(=O)CCCCc1ccc(-c2ccc3c(=O)c(C(=O)NC)c(N)n(CC)c3n2)cc1 (centres unmarked) [compound 51, 2-amino-1-ethyl-7-[4-(5-{[(1-ethylpyrrolidin-2-yl)methyl]amino}-5-oxopentyl)phenyl]-N-methyl-4-oxo-1,4-dihydro-1,8-naphthyridine-3-carboxamide]	–

Structure (SMILES)	pIC50 [2]	melting point	pIC50 [3]	pIC50 [1, 5]	pIC50 [1, 4]
CCn1c(N)c(C(=O)NC)c(=O)c2ccc(-c3ccc(CC(=O)Nc4ccccc4Cl)cc3)nc21 [compound 5, 2-amino-7-(4-{2-[(2-chlorophenyl)amino]-2-oxoethyl}phenyl)-1-ethyl-N-methyl-4-oxo-1,4-dihydro-1,8-naphthyridine-3-carboxamide]	6.72	> 260 °C	–	–	8.80
CCn1c(N)c(C(=O)NC)c(=O)c2ccc(-c3ccc(CC(=O)Nc4cc(F)cc(F)c4)cc3)nc21 [compound 6, 2-amino-7-(4-{2-[(3,5-difluorophenyl)amino]-2-oxoethyl}phenyl)-1-ethyl-N-methyl-4-oxo-1,4-dihydro-1,8-naphthyridine-3-carboxamide]	7.00	> 260 °C	7.96	–	9.24
CCn1c(N)c(C(=O)NC)c(=O)c2ccc(-c3ccc(CC(=O)Nc4ccccn4)cn3)nc21 [compound 19, 2-amino-1-ethyl-N-methyl-4-oxo-7-{5-[2-oxo-2-(pyrid-2-ylamino)-ethyl]pyrid-2-yl}-1,4-dihydro-1,8-naphthyridine-3-carboxamide]	7.00	–	7.57	–	9.40
CCN1CCCC1CNC(=O)Cc1ccc(-c2ccc3c(=O)c(C(=O)NC)c(N)n(C4CCCC4)c3n2)cc1 (centres unmarked) [compound 50, 2-amino-1-cyclopentyl-7-[4-(2-{[(1-ethylpyrrolidin-2-yl)methyl]amino}-2-oxoethyl)phenyl]-N-methyl-4-oxo-1,4-dihydro-1,8-naphthyridine-3-carboxamide]	–	222 °C	–	–	8.49
